In patent publication US20030013711A1, “Chemical derivatives and their application as antitelomerase agents” (priority 2001, published 2003):

System: A549 cells
Experiment: Cytotoxicity on human tumor line A549 (neutral red)
Format: cell-based
Details: 96 hours incubation
Procedure: The Cytotoxic Biological Activity on Human Tumor Lines is Determined According to the Following Experimental Protocol:
The human cell lines KB and A549 are obtained from the ATCC (American Type Culture Collection, Rockville, USA). The A549 cells are cultured as a layer in a culture flask in RPMI 1640 medium, L-glutamine to 2 mM, 200 U/ml penicillin, 200 μg/ml streptomycin and supplemented with 10% heat-inactivated fetal calf serum. The KB cells are cultured as a layer in a culture flask in Dulbelco's medium containing L-glutamine to 2 mM, 200 U/ml penicillin, 200 μg/ml streptomycin and supplemented with 10% heat-inactivated fetal calf serum.
The cells in exponential growth phase are trypsinized, washed in PBS 1×, and inoculated in 96-well microplates (Costar) at a concentration of 4×10^4 cells/ml for A549 and 1.5×10^4 cells/ml (0.2 ml/well) for KB cells. The cells are then incubated for 96 hours in the presence of variable concentrations of test compounds (10, 1, 0.1 and 0.01 μg/ml, each point being determined in quadruplicate). Sixteen hours before the end of the incubation, neutral red is added to a final concentration of 0.02% in each well. […] The cellular incorporation of the dye, which reflects the cell growth, is evaluated by spectrophotometry at a wavelength of 540 nm for each sample using a Dynatech MR5000 reading machine. […]

## CSc1nc(Nc2ccc3nc(C)cc(N)c3c2)nc(OC2CCN(C)CC2)n1 [Example 3, N6-[6-(1-methylpiperid-4-yloxy)-4-methylsulfanyl-[1,3,5]triazin-2-yl]-2-methylquinoline-4,6-diamine]
  IC50: 6 µM
